Where two headings read alike, the source gives them in different places.

One experiment relates to M. tuberculosis. Description: acute murine model of M. tuberculosis infection, alone and in combination. In kind it is in vivo. As to the method: ND-11992 (bd oxidase inhibitor) and Q203 (cyt-bc1:aa3 inhibitor) were evaluated in an acute murine model of M. tuberculosis infection alone and in combination. ND-11992 (10 mg/kg PO)+Q203 (5 mg/kg PO) results in bactericidal efficacy with 1.5 log 10 CFU drop in bacteria when dosed orally for 5 days. […] Both compounds were bacteriostatic when dosed alone as single agents.

Experiment [1] concerns Mycobacterium abscessus clinical specimens. Description: checkerboard assay (MIC) against Mycobacterium abscessus clinical specimens. In kind it is cell-based. Particulars: for MIC: Mycobacteroides abscessus; for Activity (effect on MICs in combination): ND-11992 with ND-11598. As to the method: ND-11992 (bd oxidase inhibitor) and ND-11598 (cyt-bc1:aa3 inhibitor) were evaluated against various Mycobacterium abscessus clinical specimens in a checkerboard assay. Additive effects on MICs were observed when both drugs were used in combination. MIC values are given in μg/mL.

For experiment [2], the system named is Nontuberculous mycobacteria (NTM) clinical isolates of the Mycobacterium avium-intracellulare complex (MAIC). Description: checkerboard assay (MIC) against NTM clinical isolates of the MAIC. In kind it is cell-based. As to conditions: for MIC: Mycobacterium avium-intracellulare. As to the method:
ND-11992 (bd oxidase inhibitor) and ND-11598 (cyt-bc1:aa3 inhibitor) were evaluated against various Nontuberculous mycobacteria (NTM) clinical isolates of the Mycobacterium avium-intracellulare complex (MAIC) in a checkerboard assay. Additive and synergistic effects on MICs were observed when both drugs were used in combination. MIC values are given in μg/mL.

For `CCc1nc2ccc(Cl)cn2c1C(=O)NCc1ccc(N2CCC(c3ccc(OC(F)(F)F)cc3)CC2)cc1` [Q203], in the experiment on M. tuberculosis (dosed alone as single agents), the “type of efficacy (bactericidal/bacteriostatic)” value is given as “bacteriostatic”.

With `Cc1ccn2c(C(=O)NCc3ccc(N4CCCN(c5ccc(C(F)(F)F)cc5)CC4)c(F)c3)c(C)nc2c1` [ND-11598], the MIC in experiment [1] (M. abscessus Clinical Isolate #8, read-out: MIC ND-11598 alone) is above 10 µg/mL; in experiment [1] (M. abscessus Clinical Isolate #8, with 5 μg/ml ND 11992, read-out: ND-11598 MIC with 5 μg/ml ND 11992), 5 µg/mL; in experiment [1] (M. abscessus Clinical Isolate #38, read-out: MIC ND-11598 alone), above 10 µg/mL; in experiment [1] (M. abscessus Clinical Isolate #38, with 5 μg/ml ND 11992, read-out: ND-11598 MIC with 5 μg/ml ND 11992), 5 µg/mL; in experiment [1] (M. abscessus Clinical Isolate #50, read-out: MIC ND-11598 alone), above 10 µg/mL; in experiment [1] (M. abscessus Clinical Isolate #50, with 5 μg/ml ND 11992, read-out: ND-11598 MIC with 5 μg/ml ND 11992), 10 µg/mL. The MIC in experiment [2] (NTM Clinical Isolate #25, read-out: MIC ND-11598 alone) stood at 0.25 µg/mL; in experiment [2] (NTM Clinical Isolate #25, with 0.5 μg/ml ND 11992, read-out: ND-11598 MIC with 0.5 μg/ml ND 11992), 0.0156 µg/mL; in experiment [2] (NTM Clinical Isolate #50, read-out: MIC ND-11598 alone) it was 1 µg/mL; in experiment [2] (NTM Clinical Isolate #50, with 0.5 μg/ml ND 11992, read-out: ND-11598 MIC with 0.5 μg/ml ND 11992) it was 0.0156 µg/mL; in experiment [2] (NTM MAIC A5 (serotype 4), read-out: MIC ND-11598 alone), 1 µg/mL; in experiment [2] (NTM MAIC A5 (serotype 4), with 0.5 μg/ml ND 11992, read-out: ND-11598 MIC with 0.5 μg/ml ND 11992), 0.25 µg/mL. In addition, the MIC in experiment [2] (NTM MAIC Serovar #4, read-out: MIC ND-11598 alone) was above 10 µg/mL; in experiment [2] (NTM MAIC Serovar #4, with 0.5 μg/ml ND 11992, read-out: ND-11598 MIC with 0.5 μg/ml ND 11992), 0.25 µg/mL; in experiment [2] (NTM MAIC Serovar #5, read-out: MIC ND-11598 alone), above 10 µg/mL; in experiment [2] (NTM MAIC Serovar #5, with 0.5 μg/ml ND 11992, read-out: ND-11598 MIC with 0.5 μg/ml ND 11992), 1 µg/mL; in experiment [2] (NTM MAIC Serovar #6, read-out: MIC ND-11598 alone), 0.0156 µg/mL; in experiment [2] (NTM MAIC Serovar #6, with ND-11992 at 1 (column head: 0.5 μg/ml), read-out: ND-11598 MIC with ND 11992), 0.0078 µg/mL. Further, the MIC in experiment [2] (NTM MAIC Serovar #10, read-out: MIC ND-11598 alone) came to 10 µg/mL; in experiment [2] (NTM MAIC Serovar #10, with 0.5 μg/ml ND 11992, read-out: ND-11598 MIC with 0.5 μg/ml ND 11992), 0.25 µg/mL.

On to `FC(F)(F)c1ccc(Oc2ccc(Nc3ncnc4ccccc34)cc2)cc1` [ND-11992], for which, in the experiment on M. tuberculosis (10 mg/kg of ND-11992 alone), the CFU drop entry is recorded as “no CFU drop”. For the same compound, the “type of efficacy (bactericidal/bacteriostatic)” value in the experiment with M. tuberculosis (combination ND-11992 10 mg/kg PO + Q203 5 mg/kg PO, 5 days) was “bactericidal”; in the experiment on M. tuberculosis (dosed alone as single agents), “bacteriostatic”. Moreover, in the experiment with M. tuberculosis (combination ND-11992 10 mg/kg PO + Q203 5 mg/kg PO, dosed orally for 5 days), the “CFU drop in bacteria” value was found to be 1.5 log 10 CFU. The MIC in experiment [1] (M. abscessus Clinical Isolate #8, with 5 μg/ml of ND-11598, read-out: ND-11992 MIC with 5 μg/ml of ND-11598) worked out at 5 µg/mL; in experiment [1] (M. abscessus Clinical Isolate #38, with 5 μg/ml of ND-11598, read-out: ND-11992 MIC with 5 μg/ml of ND-11598) it was 5 µg/mL; in experiment [1] (M. abscessus Clinical Isolate #50, with 5 μg/ml of ND-11598, read-out: ND-11992 MIC with 5 μg/ml of ND-11598), 10 µg/mL; in experiment [2] (NTM Clinical Isolate #25, ND-11598 was only 0.125 μg/ml (column head: 0.5 μg/ml), read-out: ND-11992 MIC with ND-11598), 0.0625 µg/mL; in experiment [2] (NTM Clinical Isolate #50, with 0.5 μg/ml of ND-11598, read-out: ND-11992 MIC with 0.5 μg/ml of ND-11598), 0.125 µg/mL; in experiment [2] (NTM MAIC A5 (serotype 4), with 0.5 μg/ml of ND-11598, read-out: ND-11992 MIC with 0.5 μg/ml of ND-11598), 0.25 µg/mL. Moreover, the MIC worked out at 0.5 µg/mL in experiment [2] (NTM MAIC Serovar #4, with 0.5 μg/ml of ND-11598, read-out: ND-11992 MIC with 0.5 μg/ml of ND-11598); 1 µg/mL in experiment [2] (NTM MAIC Serovar #5, with 0.5 μg/ml of ND-11598, read-out: ND-11992 MIC with 0.5 μg/ml of ND-11598); 0.5 µg/mL in experiment [2] (NTM MAIC Serovar #10, with 0.5 μg/ml of ND-11598, read-out: ND-11992 MIC with 0.5 μg/ml of ND-11598). Also, the “Activity (effect on MICs in combination)” value in experiment [1] (M. abscessus Clinical Isolate #8) was “Additive”; in experiment [1] (M. abscessus Clinical Isolate #38) it was “Additive”; in experiment [1] (M. abscessus Clinical Isolate #50), “Additive”; in experiment [2] (ND-11992 with ND-11598, NTM MAIC Serovar #6) it was “Additive”.

Values taken from patent US20220071999A1, “DESIGN AND DISCOVERY OF BD OXIDASE INHIBITORS FOR THE TREATMENT OF MYCOBACTERIAL DISEASES” (UNIVERSITY OF NOTRE DAME DU LAC, priority 2018, published 2022).
